# According to patent publication US20240270793A1, “COMPOSITIONS” (UNIVERSITY OF SOUTHAMPTON, priority 2020, published 2024):
# Square brackets hold non-standard residues; d marks the D form. Peptide text beside a SMILES is read from it. Phe(4-I) = N[C@@H](Cc1ccc(I)cc1)C(=O)O
# Key:
# [1] = target: T1, HIF-1α PAS-B (238-349) (Homo sapiens, UniProt Q16665); assay: MST binding to recombinantly expressed HIF-1α PAS-B domain
# T1 construct: human HIF-1α PAS-B (238-349); His tag; made in house; host or cells: E. coli BL21(DE3)-Rosetta, pET28a
# Experimental: (§1) Genes encoding for human HIF-1α PAS-B (238-349) and HIF-2α PAS-B (240-350) were each cloned into pET28a vectors at the BamHI and SacI restriction sites. The recombinant plasmids were next transformed into BL21(DE3)-Rosetta chemically competent cells. Cells were grown in LB media at 37° C. to an OD600 of 0.7, after which expression was induced by addition of 0.5 mM IPTG. Following overnight expression at 16° C., cells were pelleted and resuspended in buffer containing 50 mM Tris, 150 mM NaCl, 5% glycerol, 1 mM TCEP, protease inhibitors (Roche) and 20 mM imidazole, pH 8.0. Cells were lysed by sonication, and the supernatant applied to a 1 mL Histrap FF affinity column. The His-tagged protein of interest was eluted with buffer containing 50 mM Tris, 150 mM NaCl, 5% glycerol, 1 mM TCEP and 250 mM imidazole. The protein was then loaded onto a HiLoad 16/600 superdex 75 pg size exclusion column (GE healthcare) equilibrated with assay buffer containing 50 mM Tris, 150 mM NaCl, 5% glycerol and 1 mM TCEP, pH 8.0. Fractions containing the desired protein were flash-frozen and stored at −80° C. prior to use.
# (§2) HIF-α proteins were labelled with Monolith NT-647 labelling dye (Nanotemper Technologies GmbH) according to the manufacturer's instructions. MST experiments were performed on a Monolith NT.115 system (Nanotemper Technologies GmbH), in assay buffer containing 50 nM labelled protein, 10% DMSO and 0.05% TWEEN-20. MST measurements were performed using 50% LED and 50% MST power.
# [2] = system: HRE-controlled YFP expression in T-REx-293 cell line; assay: YFP reporter assay (YFP under control of three HRE copies) in hypoxia; format: cell-based; conditions: YFP-reporter HEK cell line, various doses
# Experimental: The effect of the cyclic peptides on cellular systems was assessed. A cell-based assay was developed in which the expression of yellow fluorescent protein (YFP) was put under the control of the HRE. A cassette was designed containing the YFP gene preceded by three copies of the HRE sequence. This cassette in turn was stably integrated into the chromosome of T-REX-293 cell line as described previously. […] In these cells, hypoxia results in increased expression of YFP (directly by HIF), so a HIF inhibitor would be expected to reduce the fluorescence of these cells when incubated in hypoxia.
# Following in vitro characterisation and optimisation of binding, the effect of the cyclic peptides on cellular systems was assessed. A cell-based assay was developed in which the expression of yellow fluorescent protein (YFP) was put under the control of the HRE. A cassette was designed containing the YFP gene preceded by three copies of the HRE sequence. This cassette in turn was stably integrated into the chromosome of T-REx-293 cell line as described previously.^12
# In these cells, hypoxia results in increased expression of YFP (directly by HIF), so a HIF inhibitor would be expected to reduce the fluorescence of these cells when incubated in hypoxia.
# [3] = solubility (qualitative); format: physicochemical
# [4] = system: cells; assay: commercial cell-viability assay; format: cell-based; conditions: at up to twice the tested doses
# Experimental: The 4-iodo derivative was tested in a commercial cell-viability assay, and was not toxic to cells at up to twice the tested doses.
# The 4-iodo derivative was tested in a commercial cell-viability assay, and was not toxic to cells at up to twice the tested doses (FIG. 6).
# [5] = target: T2, HIF-2α PAS-B (240-350) (Homo sapiens, UniProt Q99814); assay: MST binding to recombinantly expressed HIF-2α PAS-B domain; conditions: HIF-2α PAS-B vs HIF-1α PAS-B
# T2 construct: HIF-2α PAS-B (240-350); His tag; made in house; host or cells: E. coli BL21(DE3)-Rosetta, pET28a
# Experimental: The three lead peptides were next chemically synthesised, using Fmoc-solid phase peptide synthesis methodology, followed by in-solution cyclisation under high dilution conditions.
# as §1, with “use. […]” for “use.”
# [6] = target: T3, HIF-1a (Homo sapiens, UniProt Q16665); assay: CETSA in MCF-7 cells; format: cell-based; conditions: observed at 51° C. and 54° C.
# T3 construct: endogenous in cells; host or cells: MCF-7
# Experimental: The binding of 4-iodo derivative to HIF-1a was assessed by CETSA in MCF-7 cells. Stabilisation of HIF-1a by this compound can be observed at 51° C. and 54° C.
# The binding of 4-iodo derivative to HIF-1a was assessed by CETSA in MCF-7 cells. Stabilisation of HIF-1a by this compound can be observed at 51° C. and 54° C. (FIG. 7).
# [7] = system: HIF-2α/1α:HIF-1β RTHS; assay: RTHS secondary screening, drop-spotting regrowth assay; format: cell-based; conditions: SICLOPPS-expressed peptide, control CAAAAA
# Experimental: A screen for cyclic peptide inhibitors of HIF-2 dimerization was performed using SICLOPPS with a HIF-2 RTHS, using a method described previously.^8,9 (FIG. 1a). A secondary screen was then also conducted on the HIF-1 RTHS to compare selectivity, after which the hits found to inhibit both HIF-2 and HIF-1 were chosen for further review (FIG. 1b). SICLOPPS plasmids that produced a growth advantage in both systems were further screened in an unrelated p6/UEV RTHS to eliminate false positives (FIG. 1b).
# It was expected that the similarity between these peptides would translate to a common structure-affinity relationship trend between the three, and that any differences in affinity could be used to inform optimisation efforts. In addition, all three peptides contained a basic side chain (arginine or lysine), which are protonated under physiological conditions, and would therefore aid solubility and potentially provide a useful polar interaction with the proteins themselves. […] The splicing efficiency of peptides from the Ssp intein may vary slightly depending on their sequence, thus resulting in different concentrations of peptide in the cell, which may therefore bias the extent of regrowth response.^10 It was therefore decided that to fully validate these hits, that the binding activity was to be assessed under in vitro assay conditions. […]
# [8] = system: 1α PAS-B mutants C255A, C334A or C337A; assay: MST binding to 1α PAS-B cysteine mutants; parameters: species or system human; conditions: mutations C255A
# Excerpt: The potency imparted by the thiol motif raised the possibility of the interaction being disulfide-mediated. To counter this, all assays thus far had been performed with excess reducing agent tris(2-carboxyethyl)phosphine (TCEP) present in the buffers. Nonetheless the possibility was still considered due to the importance of the thiol moiety. As the HIF-α PAS-B domain contains multiple cysteines in internal cavities there remained the potential for disulfide bond formation within a solvent and TCEP-inaccessible region of the protein-peptide complex. Three 1α PAS-B mutants were therefore prepared with mutations C255A, C334A or C337A and the activity of the peptide CRLIIF [SEQ ID NO: 6, cyclic peptide #4] again tested by MST. It was anticipated that if a disulfide bond were to form with any of these then there would be a significant loss of binding for the peptide with the corresponding mutant.
# as §2
# T1 sequence (Q16665 238-349): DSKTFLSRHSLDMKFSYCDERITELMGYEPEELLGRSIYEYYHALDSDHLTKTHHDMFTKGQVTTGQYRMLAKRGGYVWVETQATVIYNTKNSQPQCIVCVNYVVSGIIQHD
# T2 sequence (Q99814 240-350): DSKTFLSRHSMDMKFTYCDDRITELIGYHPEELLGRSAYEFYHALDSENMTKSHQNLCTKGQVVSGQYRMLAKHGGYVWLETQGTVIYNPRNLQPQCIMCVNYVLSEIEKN
# T3 sequence (Q16665 whole entry): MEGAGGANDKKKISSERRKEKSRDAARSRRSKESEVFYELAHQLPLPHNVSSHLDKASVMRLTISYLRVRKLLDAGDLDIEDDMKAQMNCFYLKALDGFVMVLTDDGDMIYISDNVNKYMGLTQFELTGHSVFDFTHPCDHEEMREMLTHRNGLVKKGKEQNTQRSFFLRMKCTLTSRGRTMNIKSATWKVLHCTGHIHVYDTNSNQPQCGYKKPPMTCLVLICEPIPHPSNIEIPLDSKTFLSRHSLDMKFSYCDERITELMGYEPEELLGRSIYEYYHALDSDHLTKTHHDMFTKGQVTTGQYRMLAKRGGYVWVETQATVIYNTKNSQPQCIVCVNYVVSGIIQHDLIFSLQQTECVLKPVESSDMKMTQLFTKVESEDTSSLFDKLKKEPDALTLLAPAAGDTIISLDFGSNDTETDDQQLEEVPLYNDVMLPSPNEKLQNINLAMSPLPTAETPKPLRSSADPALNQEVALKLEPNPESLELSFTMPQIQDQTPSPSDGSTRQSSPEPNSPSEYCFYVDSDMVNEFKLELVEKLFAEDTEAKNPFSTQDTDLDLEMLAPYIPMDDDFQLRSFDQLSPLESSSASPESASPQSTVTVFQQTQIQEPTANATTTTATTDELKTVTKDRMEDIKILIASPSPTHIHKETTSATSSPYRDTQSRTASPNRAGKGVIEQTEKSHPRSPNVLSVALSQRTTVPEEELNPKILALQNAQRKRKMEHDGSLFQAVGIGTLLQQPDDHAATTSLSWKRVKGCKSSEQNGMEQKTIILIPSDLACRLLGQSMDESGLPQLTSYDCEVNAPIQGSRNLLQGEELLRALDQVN
smiles,measurement,setting,value
"CC[C@H](C)[C@@H]1NC(=O)[C@H](CC(C)C)NC(=O)[C@H](CCCNC(=N)N)NC(=O)[C@H](CS)NC(=O)[C@H](Cc2ccc(I)cc2)NC(=O)[C@H]([C@@H](C)CC)NC1=O [Cyclic peptide #18, cyclo-cys agr leuileile (4-I)phe] (cyclo(CRLII[Phe(4-I)]))",improvement in affinity relative to the parent compound,"[1]; HIF-1α PAS-B, parent CRLIIF",4.5 fold
same,IC50,[2],~35 µM
same,water solubility compared with the 4-benzyl compound,[3],better water solubility
same,toxicity to cells in cell-viability assay,[4],not toxic
same,loss in Kd compared to the 1α isoform,[5],2.2 fold
same,Stabilisation of HIF-1a by CETSA,[6],Stabilisation
"CC[C@H](C)[C@@H]1NC(=O)[C@H](C(C)C)NC(=O)[C@H](CCCNC(=N)N)NC(=O)[C@H](CS)NC(=O)[C@H](Cc2ccccc2)NC(=O)[C@H]([C@@H](C)CC)NC1=O [Cyclic peptide #3, cyclo-cys arg val ile ile phe] (cyclo(CRVIIF))",selectivity for 1α over 2α,"[1]; MST affinities, 1α vs 2α PAS-B",2 fold
same,regrowth response in drop-spotting assay,[7],greatest regrowth response
"CC[C@H](C)[C@@H]1NC(=O)[C@H](CC(C)C)NC(=O)[C@H](CCCNC(=N)N)NC(=O)[C@H](CS)NC(=O)[C@H](Cc2ccccc2)NC(=O)[C@H]([C@@H](C)CC)NC1=O [Cyclic peptide #4, cyclo-cys agr leu ile ile phe] (cyclo(CRLIIF))",greater affinity than CKLLIF,[1]; MST against 1α PAS-B,about 3 fold
same,affinity for 1α PAS-B mutants compared to wild-type protein,[8],identical to that of the wild-type protein
